Test system: soybean rust fungus (Phakopsora pachyrhizi)
Assay: Test Example 7: soybean rust control, foliar spray on soybean
Format: in vivo
Conditions: 200 ppm sprayed on soybean (KUROSENGOKU); inoculated after 2 days; assessed after 3 + 14 days

With CON=C(C)c1cccc(OCc2c(C)cccc2-n2nnn(C)c2=O)n1 [compound 44] the “area of lesion on the treated plant relative to that on an untreated plant” value was no more than 30%.

— patent publication US9635857B2, “Tetrazolinone compound and use thereof” (SUMITOMO CHEMICAL COMPANY, LIMITED, priority 2013, dated 2017)
